Measured values as given in patent US20250277272A1, “CANCER TREATMENTS AND METHODS OF SELECTING SAME” (The General Hospital Corporation, priority 2016, published 2025).

Columns and labels:
[1] = system: SKMEL28, A375 and M14 cells; assay: Sensitivity of cells with inducible STAG2 shRNA to BRAFi (viability, Western blot); format: cell-based; conditions: inducible expression of an independent shRNA targeting STAG2
Description: (§1) FIGS. 2A-2H. Knock-down of STAG2 or STAG3 decreases BRAFi sensitivity in BRAF-mutant melanoma cells. FIG. 2A, Viability of A375 cells expressing cither a scrambled control shRNA or a STAG2-specific shRNA (shSTAG2 #23), after treatment with varying concentrations of dabrafenib (Dab) for 3 d. Experiment was performed three times. Data are mean±s.e.m. shSTAG2 #23 sequence: […] TTTG; SEQ ID NO. 1) scramble control shRNA sequence: ([…]: SEQ ID NO. 2) FIG. 2B, Representative Western blot analysis of A375 cells that were treated with dabrafenib for 2 hr. Experiment was performed three times. FIG. 2C, Viability of SKMEL28 cells expressing an inducible STAG2-specific shRNA (shStag2 #60; […]: SEQ ID NO. 3) and cultured in the presence (+Dox) or absence (−Dox) of doxycycline after treatment with varying concentrations of vemurafenib (VEM) for 3 d. Experiment was performed three times. FIG. 2D, Representative Western blot analysis of SKMEL30 cells that were treated with vemurafenib for 2 hr. FIG. 2E, Viability of A375 cells expressing either a scrambled control shRNA or a STAG3-specific shRNA (shSTAG3 #96), after treatment with varying concentrations of dabrafenib for 3 days. Experiment was performed 3 times. Data are mean±s.e.m. […]

ERK phosphorylation = assay: Western blot of p-ERK in A375 cells with STAG2 and/or STAG3 knockdown; format: cell-based; conditions: 2 hr treatment
Description: as §1

[2] = system: BRAF-mutant melanoma cells; assay: BRAFi sensitivity after STAG3 knockdown (cell viability and ERK inhibition); format: cell-based; conditions: knockdown of STAG3
A375 cells = assay: MTS cell viability assay, A375 cells with STAG2 knockdown; format: cell-based; conditions: A375 cells expressing STAG2-specific shRNA vs scrambled control shRNA; 3 d
Description: FIGS. 2A-2H. […] FIG. 2A, Viability of A375 cells expressing cither a scrambled control shRNA or a STAG2-specific shRNA (shSTAG2 #23), after treatment with varying concentrations of dabrafenib (Dab) for 3 d. Experiment was performed three times. Data are mean±s.e.m. shSTAG2 #23 sequence: […] TTTG; SEQ ID NO. […] 2) FIG. 2B, Representative Western blot analysis of A375 cells that were treated with dabrafenib for 2 hr. Experiment was performed three times. […] Experiment was performed three times. FIG. 2D, Representative Western blot analysis of SKMEL30 cells that were treated with vemurafenib for 2 hr. […] Experiment was performed 3 times. Data are mean±s.e.m. […] Experiment was performed three times. […] Experiment was performed three times. […] Experiment was performed three times.
Experiment was performed 3 times. Data are mean±s.e.m. […] Experiment was performed three times. […] Experiment was performed three times. […] Experiment was performed 3 times. Data are mean±s.e.m. […] Experiment was performed three times. […] Experiment was performed three times. […] Experiment was performed 3 times. […] Experiment was performed 3 times. Data are mean±s.e.m. […] Experiment was performed 3 times.

[3] = system: M14 or SKMEL28 melanoma cells; assay: MTS assay with the ERK inhibitor, cells with inducible Stag2 knockdown; format: cell-based; conditions: doxycycline-induced shStag2 #60; 3 days
Description: M14 (FIG. 12A) or SKMEL28 (FIG. 12B) melanoma cells expressing pTRIPZ-shStag2 #60 were cultured in the presence or absence of doxycycline (Doxy) for 5 days to induce the expression of Stag2 shRNAs and treated with various concentrations of ERK inhibitor SCH772984 for 3 days, before MTS assays were performed.
(§2) Cell culture: All melanoma cell lines used in this study contain BRAF^Val600Glu mutations, except as otherwise indicated. A375 and SKMEL28 cells were purchased from the American Type Culture Collection (ATCC). LOX-IVMI cells were obtained from the Division of Cancer Treatment and Diagnosis. National Cancer Institute. (NCI-DCTD) repository. WM902, WM902-BR, WM983, WM983-BR and MEL1617 cell lines were obtained from Dr. Meenhard Herlyn (Wistar Institute). Immortalized Braf-null mouse embryonic fibroblasts (MEFs) were a gift from Dr. Catrin Pritchard (University of Leicester)^38. 501MEL and SKMEL103 cells, harboring NRAS mutations, were gifts from Dr. Lynda Chin (MD Anderson Cancer Center) and Dr. Jonathon Zippin (Weill Cornell Medical College), respectively. These cell lines were not authenticated by the inventors. WM902, WM983, M14, MEL1617, SKMEL28, A375, LOX-IVMI, 501MEL and SKMEL103 cells were cultured in RPMI containing 10% FBS (FBS) and penicillin-streptomycin-glutamine (PSG). […]

WM902BR cells = assay: MTS assay with the ERK inhibitor, WM902 (Stag2 WT) and WM902BR (Stag2 mutant); format: cell-based; conditions: 3 days, two independent experiments
Description: Both WM902 (Stag2 WT) and WM902BR (Stag2 mutant) were treated with various concentrations of ERK inhibitor SCH772984 for 3 days, before MTS assays were performed. Data were from two independent experiments: Experiment A (FIG. 11A) and Experiment B (FIG. 11B).
as §2, with “(PSG). HEK293 and MEF cells were maintained in Dulbecco's modified Eagle's medium (DMEM) containing 10% FBS and PSG.” for “(PSG).”

melanoma = assay: Melanoma patient treated with BRAFi, relapse; format: in vivo, human; conditions: one melanoma patient who relapsed
Description: This mutation in STAG2 gene (c.577G>A, resulting in Asp193Asn) was subsequently confirmed by Sanger sequencing. Although the pretreatment sample contains trace amounts of the mutated allele, it is greatly enriched in the post-relapse sample (FIG. 1A). STAG2 (also known as SA2) encodes a core subunit in the cohesin complex that regulates cohesion and segregation of sister chromatids^11,12. […] Stag2 has two other paralogs in mammals, Stag1 and Stag3. […] Sanger sequencing was subsequently performed for all coding exons of STAG2 and STAG3 genes in these cell line pairs and identified a STAG2 nonsense mutation (c.3247A>T, resulting in a change of Lys1083 to a stop codon (Lys1083*)) in WM902BR cells, which was not present in the parental WM902 cells (FIG. 6A). No mutations in STAG3 were identified in this cell line panel. […] STAG3 mutations were detected in post-relapse, but not pre-treatment, samples from an additional six patients from this study (Table 2).
Patient samples and immunohistochemistry (IHC): Patients with metastatic melanoma containing BRAF^Val600 mutations (confirmed by genotyping) were enrolled in clinical trials testing treatment with a BRAF inhibitor alone or in combination with a MEK inhibitor. […] Formalin-fixed tissue was analyzed to confirm that viable tumor was present, using hematoxylin and eosin (H&E) staining. […]

CC(C)(C)c1nc(-c2cccc(NS(=O)(=O)c3c(F)cccc3F)c2F)c(-c2ccnc(N)n2)s1 [dabrafenib]
sensitivity of cells to BRAFi [1]: decreased the sensitivity | ability to inhibit ERK phosphorylation (ERK phosphorylation): reduction in the ability | sensitivity with regard to cell viability and ERK inhibition [2]: decreased sensitivity | sensitivity in cell viability assay (MTS) (A375 cells): lower sensitivity

O=C(Nc1ccc2[nH]nc(-c3ccncc3)c2c1)[C@@H]1CCN(CC(=O)N2CCN(c3ccc(-c4ncccn4)cc3)CC2)C1 [SCH772984]
effect of Stag2 knockdown on sensitivities in MTS assay [3]: does not affect their sensitivities | sensitivity of cells in MTS assay (WM902BR cells): sensitive to inhibition

CCCS(=O)(=O)Nc1ccc(F)c(C(=O)c2c[nH]c3ncc(-c4ccc(Cl)cc4)cc23)c1F [vemurafenib]
time-to-disease-progression (melanoma): 5 months
